This is an account of results in patent US7879344B2, “Transdermal delivery of oleocanthal for relief of inflammation” (Kimberly-Clark Worldwide, Inc., priority 2006, dated 2011).

The conditions of series [1]: phenolic group of oleocanthal; carboxylic acid group of ibuprofen and similar NSAIDs; cited from earlier work.
The nature of series [2]: solubility in fats and oils (stated in the text, no test described). In kind it is physicochemical. As to conditions: "it has been discovered", no data given. The source says:
Traditionally, it has been difficult to administer ibuprofen and other similar NSAIDs transdermally. […] This is particularly problematic for transdermal administration, given the high concentration of lipids in the stratum corneum. Consequently, formulating a transdermal ibuprofen-containing composition that is capable of penetrating through the stratum corneum in effective amounts is difficult.
Without wishing to be bound to any particular theory, it is believed that the ability of oleocanthal to remain in a neutral state over a broad pH range contributes to the ability of oleocanthal to more readily penetrate the stratum corneum, as compared to ibuprofen and similar NSAIDs. […] This is advantageous for transdermal delivery. Since most transdermal compositions are formulated to have a pH of from about 3.5 to about 8.5, and more typically from about 5.0 to about 6.0, oleocanthal will mostly be in its neutral, non-ionized state when the transdermal composition is contacted with skin. In contrast, ibuprofen and similar NSAIDs, which contain a carboxylic acid group that may begin to ionize at a pH of about 4.0, will be all or partly in their ionized state (and thus […]) when the transdermal composition is contacted with skin. Consequently, oleocanthal penetrates the stratum corneum more readily than ibuprofen and other similar NSAIDs.

For the compound `CC(C)Cc1ccc(C(C)C(=O)O)cc1` (stereo not drawn) [ibuprofen, reference compound], in series [1], the “pH at which the ionisable group begins to ionize” value is “about 4.0 pH”. On to `C/C=C(/C=O)[C@@H](CC=O)CC(=O)OCCc1ccc(O)cc1` [oleocanthal], for which, in series [2], the “solubility in fats and oils” value is “highly soluble”. Further, in series [1], the “pH at which the ionisable group begins to ionize” value is given as “about 9.5 pH”.
